The values that follow come from publication PMC5233962 (Scientific Reports, 2017).

In series [1] the test system is MAO. The conditions noted are these: cited from earlier work.
For series [2], the system named is hMAO. Nature of the series: Type of inhibition from dilution experiments, both hMAO isoforms. Format: biochemical, human. The conditions noted are these: dilution experiment, preincubation 10 × IC50, 100-fold dilution. The procedure: After preincubation probes were diluted 100-fold, measured at saturated substrate conditions and the remaining enzyme activity was compared to that of MAO preincubated without ciproxifan.
Reversibility of hMAO inhibition by ciproxifan was assessed by dilution experiments. […] The inhibitor volume represented one-tenth of the total preincubation volume. […] Enzymatic conversion rates were determined in the presence of kynuramine for hMAO A and benzylamine for hMAO B at saturating substrate concentrations (10 × KM) under potassium phosphate buffer conditions (50 mM, pH = 7.4).

Series [3] concerns the target T1, rat brain MAO A (Rattus norvegicus, UniProt P21396).
T1 construct: the crude homogenates prepared from pooled brain from three rats were used; from tissue; host or cells: Wistar rat brain, crude homogenate
Nature of the series: Radiometric IC50 determination, rat brain MAO A. Format: biochemical. The conditions noted are these: substrate 5-HT, rat brain homogenate, read-out: IC50 rMAO A. The method, then:
(§1) The IC50 values of ciproxifan for rat brain MAO (rMAO) were obtained radiometrically using serotonin (5-HT) and phenylethylamine (PEA) as MAO A and MAO B substrates, respectively.
(§2) Wistar male rats were sacrificed, the brains were quickly excised from the skulls, cleaned of residual meninges and frozen on dry ice. For each experiment the crude homogenates prepared from pooled brain from three rats were used. Enzyme activity of MAO A or MAO B was measured using radioactive substrate (PerkinElmer/NEN): serotonin (5-[2-^14C]-hydroxytryptamine binoxalate) or β-[ethyl-1-^14C]-phenyl-ethyl-amine hydrochloride (PEA), respectively, with the procedure described by Fowler and Tipton 1981[25] with some modification according to Gómez et al.[26]. […] IC50 values were determined in three independent experiments, each performed in duplicates.

Series [4] deals with gp5-HT1B. Also noted: method as in PMID 9808693. Conditions: guinea pig iliac; cited from earlier work.
Series [5] has as its target r5-HT4. Also noted: method as in PMID 9808693. The conditions noted are these: rat esophagus; cited from earlier work.
Series [6] concerns the target mH3R. Also noted: method as in PMID 15341517. The conditions noted are these: mouse H3R; cited from earlier work.
The target of series [7] is r5-HT1. On the set-up: method as in PMID 18683917. The conditions noted are these: rat; cited from earlier work.
The target of series [8] is T2, human recombinant membrane-bound MAO B (Homo sapiens, UniProt P27338).
T2 construct: purchased Sigma-Aldrich
T2 sequence (P27338 1-520): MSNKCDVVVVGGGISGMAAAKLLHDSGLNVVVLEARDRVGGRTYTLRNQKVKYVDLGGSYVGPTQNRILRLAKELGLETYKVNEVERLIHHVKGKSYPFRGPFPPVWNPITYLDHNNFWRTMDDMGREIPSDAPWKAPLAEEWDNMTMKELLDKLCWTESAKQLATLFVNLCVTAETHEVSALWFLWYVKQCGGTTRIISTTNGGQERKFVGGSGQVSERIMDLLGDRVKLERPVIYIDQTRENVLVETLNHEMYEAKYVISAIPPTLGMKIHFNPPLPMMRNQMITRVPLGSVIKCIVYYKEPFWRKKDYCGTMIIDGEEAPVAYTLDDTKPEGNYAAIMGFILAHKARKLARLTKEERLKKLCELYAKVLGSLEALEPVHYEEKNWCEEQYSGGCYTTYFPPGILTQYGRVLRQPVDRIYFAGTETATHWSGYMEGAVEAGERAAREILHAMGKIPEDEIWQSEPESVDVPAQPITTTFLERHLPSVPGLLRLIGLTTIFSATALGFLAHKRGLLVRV
Description: Spectrophotometric IC50 determination, human MAO B. Format: biochemical. Conditions: for IC50: spectrophotometric, read-out: IC50 hMAO B.

In series [9] the target is hα2A. On the set-up: method as in PMID 12606603. The conditions noted are these: human; cited from earlier work.
Series [10] addresses mkH3R. Also noted: method as in PMID 14660004. Conditions: monkey H3R; cited from earlier work.
Series [11] has as its target T3, rat brain MAO B (Rattus norvegicus, UniProt P19643).
T3 construct: the crude homogenates prepared from pooled brain from three rats were used; from tissue; host or cells: Wistar rat brain, crude homogenate
Nature of the series: Radiometric IC50 determination, rat brain MAO B. Format: biochemical. The method, then: as §1, §2

Series [12] concerns the target hH4R. Also noted: method as in PMID 12606603. Conditions: human; cited from earlier work.
Series [13] concerns the target rH3R. Conditions: rat H3R; cited from earlier work.
For series [14], the target named is r5-HT2A. On the set-up: method as in PMID 9808693. The conditions noted are these: rat tail; cited from earlier work.
In series [15] the target is gpβ1. Also noted: method as in PMID 9808693. The conditions noted are these: guinea pig atrium; cited from earlier work.
In series [16] the target is hH1R. Also noted: method as in PMID 12606603. The conditions noted are these: human; cited from earlier work.
For series [17], the target named is human recombinant membrane-bound MAO A (Homo sapiens, UniProt P21397). Description: Spectrophotometric IC50 determination, human MAO A. Conditions: IC50 hMAO A, substrate KYN.
Chain of human recombinant membrane-bound MAO A (P21397 whole entry): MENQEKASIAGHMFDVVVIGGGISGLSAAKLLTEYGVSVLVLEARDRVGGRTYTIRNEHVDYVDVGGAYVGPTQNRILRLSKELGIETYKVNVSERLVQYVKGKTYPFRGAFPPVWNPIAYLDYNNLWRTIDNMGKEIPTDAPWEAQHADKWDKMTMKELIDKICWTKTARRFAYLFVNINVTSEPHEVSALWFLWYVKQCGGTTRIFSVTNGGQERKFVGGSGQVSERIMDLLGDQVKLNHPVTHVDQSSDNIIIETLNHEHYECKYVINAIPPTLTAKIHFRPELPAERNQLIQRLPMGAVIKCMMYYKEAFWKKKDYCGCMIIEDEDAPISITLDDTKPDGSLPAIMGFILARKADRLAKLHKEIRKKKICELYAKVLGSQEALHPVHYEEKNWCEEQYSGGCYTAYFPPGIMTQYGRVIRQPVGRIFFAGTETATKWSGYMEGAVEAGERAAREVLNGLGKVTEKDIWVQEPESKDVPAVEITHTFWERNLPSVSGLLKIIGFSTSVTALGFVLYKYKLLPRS
Description: Enzyme studies were carried out using human recombinant membrane-bound MAO A and MAO B (Sigma-Aldrich, St. Louis, MO). […] For optimal enzyme activity all assays were carried out under potassium phosphate buffered conditions (50 mM, pH = 7.4). […] Data were analysed using GraphPad PRISM version 6. For IC50 determinations initial velocities for each experiment were normalized (expressed as percentage), plotted against inhibitor concentrations and fitted using the non-linear regression “log inhibitor vs. response (three parameters)”. IC50 values were determined in at least three independent experiments, each performed at least in duplicates.
For series [18], the target named is gp5-HT3. On the set-up: method as in PMID 9808693. Conditions: guinea pig ileum; cited from earlier work.
Series [19] concerns the target hH3R. On the set-up: method as in PMID 11090094, PMID 12606603, PMID 14660004. The conditions noted are these: human H3R; cited from earlier work.
For series [20], the target named is rα1D. On the set-up: method as in PMID 9808693. The conditions noted are these: rat aorta; cited from earlier work.
In series [21] the target is rodent H3R. Nature of the series: Affinity at rodent H3R (discussion). Format: binding. The conditions noted are these: rodent vs human H3R.
Series [22] deals with r5-HT3. On the set-up: method as in PMID 12606603. Conditions: rat; cited from earlier work.
Details of series [23]: method as in PMID 18305012. The conditions noted are these: applied i.p. to rats; cited from earlier work.
Series [24] has as its target gp M3. Also noted: method as in PMID 9808693. The conditions noted are these: guinea pig ileum; cited from earlier work.
The target of series [25] is hH2R. Also noted: method as in PMID 12606603. Conditions: human; cited from earlier work.
For series [26], the target named is hα2C. On the set-up: method as in PMID 12606603. Conditions: human; cited from earlier work.

Usually IC50 stands for the concentration that inhibits the measured activity by half. One may read the Ki as the dissociation constant of the complex between target and ligand, obtained from inhibition or displacement.

“And” between values parts separate entries of the source, which are not always exact repeats. Identical values can stand only once. Like-named read-outs stand apart in the source and are kept apart here.

T3 sequence (P19643 whole entry): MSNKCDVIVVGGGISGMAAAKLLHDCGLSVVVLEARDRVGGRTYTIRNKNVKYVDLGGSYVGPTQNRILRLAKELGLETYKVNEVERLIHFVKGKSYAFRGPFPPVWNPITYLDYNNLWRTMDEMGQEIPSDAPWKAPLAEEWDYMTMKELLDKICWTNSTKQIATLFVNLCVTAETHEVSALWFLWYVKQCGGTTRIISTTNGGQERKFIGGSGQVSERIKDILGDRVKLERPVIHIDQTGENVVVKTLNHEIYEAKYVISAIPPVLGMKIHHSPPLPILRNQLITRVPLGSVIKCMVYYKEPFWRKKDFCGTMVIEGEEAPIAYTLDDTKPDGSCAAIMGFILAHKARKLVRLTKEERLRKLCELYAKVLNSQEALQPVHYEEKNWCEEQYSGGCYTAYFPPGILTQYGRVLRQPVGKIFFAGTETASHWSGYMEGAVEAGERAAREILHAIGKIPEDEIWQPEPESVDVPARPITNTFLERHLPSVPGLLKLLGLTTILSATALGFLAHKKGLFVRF
T1 sequence (P21396 whole entry): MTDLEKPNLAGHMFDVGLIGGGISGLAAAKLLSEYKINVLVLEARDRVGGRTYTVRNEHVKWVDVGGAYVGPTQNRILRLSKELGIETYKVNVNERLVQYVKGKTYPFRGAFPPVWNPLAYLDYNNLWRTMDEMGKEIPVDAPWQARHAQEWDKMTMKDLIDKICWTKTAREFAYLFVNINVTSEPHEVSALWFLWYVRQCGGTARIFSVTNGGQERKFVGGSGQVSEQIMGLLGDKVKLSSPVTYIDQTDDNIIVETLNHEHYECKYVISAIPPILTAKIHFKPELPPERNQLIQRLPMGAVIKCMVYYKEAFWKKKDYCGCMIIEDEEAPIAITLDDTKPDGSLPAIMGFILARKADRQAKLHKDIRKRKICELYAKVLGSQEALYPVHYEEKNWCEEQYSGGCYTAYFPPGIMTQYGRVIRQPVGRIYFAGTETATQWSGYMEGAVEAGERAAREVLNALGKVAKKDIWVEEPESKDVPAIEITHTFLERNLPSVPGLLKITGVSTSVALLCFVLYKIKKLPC

Consider `C#CCN(C)[C@H](C)Cc1ccccc1` [L-Deprenyl], for which, in [1], the “Inhibition Type” value is “Mixed/Irreversible[33]”.

Take `O=C(c1ccc(OCCCc2cnc[nH]2)cc1)C1CC1` [Ciproxifan, cyclopropyl 4-(3-(1H-imidazol-4-yl)propyloxy)phenyl methanone]: in series [2], the “Inhibition Type” value was “Reversible”. Further, the IC50 was 38 µM and 37.5 µM in series [3]; 4.3 ± 0.7 µM in series [8] (substrate BZA); 2 µM and 2.1 µM in [8] (substrate KYN); 15 µM and 15.4 µM in series [11] (substrate PEA, radiometric, rat brain homogenate, read-out: IC50 rMAO B); 11 µM and 11.4 µM in series [17]. For the same compound, the inhibition constant (Ki) in series [4] was > 10 µM; in series [5], > 2 µM; in [6], 0.0005 to 0.0008 µM; in series [7] it was 16.6 µM; in [9] it was 0.043 µM; in series [10], 0.041 µM. The inhibitory constant (Ki) in [12] was 1.86 µM; in series [13], 0.0004 to 0.0062 µM; in series [14] it was 15.8 µM; in series [15], 12.6 µM; in series [16], > 10 µM; in series [18], > 3.16 µM. Further, the Ki in series [19] is 0.046 to 0.18 µM; in [20], 3.98 µM; in [22], 0.302 µM; in [24] it was 3.16 µM; in series [25] it was > 10 µM; in series [26], 0.063 µM. Besides, the “IC50, MAO B/IC50, MAO A” value is on record as 0.2 in series [8] (human MAO) and 0.4 in [11] (rat brain MAO). The “preference for MAO B” value in [8] (human MAO B over MAO A) is “about 5 fold”. In series [21], the “Ki at rodent H3R, fold lower than at the human H3R” value was 30- to 100 fold. The brain concentrations in [23] is ≤ 10 µM.

`C#CCN(C)CCCOc1ccc(Cl)cc1Cl` [Clorgyline]: the “Inhibition Type” value in series [1] is “Mixed/Irreversible[33]”.

As for `C[C@H](NCc1ccc(OCc2cccc(F)c2)cc1)C(N)=O` [Safinamide], in series [1], the “Inhibition Type” value is “Reversible[20]”.

On to `O=C(NCCN1CCOCC1)c1ccc(Cl)cc1` [Moclobemide], for which, in series [1], the “Inhibition Type” value was “Reversible[32]”.
